Assay results from PMC9069370, “Integrated Design of a Membrane‐Lytic Peptide‐Based Intravenous Nanotherapeutic Suppresses Triple‐Negative Breast Cancer” (Advanced Science, 2022).
Square brackets hold non-standard residues; d marks the D form. Peptide text beside a SMILES is read from it.

Key:
U2OS = type: cell-based, human; details: 72 h
[1] = Tryptophan fluorescent binding assay; details: tryptophan fluorescence; 50 µM peptide, lipid titrated 0-5000 µM; phosphate buffered saline 1X, pH 7.4; values as lipid per peptide
Protocol: 50 µM ACP peptides and varied concentrations (concentrations: 0, 25, 50, 100, 150, 200, 250, 500, 1250, and 2500 µM) of POPC or POPC:POPG (3:1 ratio) large unilamellar vesicles were prepared in 10 mM phosphate buffer (pH 7.0). The solutions were measured after 1 h of incubation. Excitation was fixed at 280 nm (slit 9 nm) and emission was collected from 300 to 450 nm (slit 9 nm). The spectra were recorded using Cytation 5 Cell Imaging Multi‐Mode Reader from BioTek and were averaged by three scans.
Lipid Concentration-induced
Name Sequence† 50% Peptide Binding (L/P)
Extended Data Table 3 | Tryptophan binding assay. […]
peptide binding onto liposome. 50 µM peptides were fixed and incubated with titrated lipid (POPC vesicle […]
phosphate buffered saline (1X, pH 7.4). The lipid concentration that causes 50 % peptide binding was determined using tryptophan fluorescent binding assay and the values are shown as lipid per peptide.

[2] = ANTS/DPX liposome leakage assay; details: for Peptide Concentration-induced 50 % ANTS/DPX leakage at pH 4.8 (L/P), 3POPC/1POPG Vesicle / Peptide Concentration-induced 50 % ANTS/DPX leakage at pH 4.8 (L/P), POPC Vesicle / Peptide Concentration-induced 50 % ANTS/DPX leakage at pH 7.4 (L/P), 3POPC/1POPG Vesicle / Peptide Concentration-induced 50 % ANTS/DPX leakage at pH 7.4 (L/P), POPC Vesicle: 0.5 mM vesicles, peptide 0-20 µM, 3 h incubation, lipid per peptide; for Peptide Concentration-induced 50 % ANTS/DPX leakage at pH 4.8 (L/P), 3POPC/1POPG Vesicle / Peptide Concentration-induced 50 % ANTS/DPX leakage at pH 4.8 (L/P), POPC Vesicle: HCl-adjusted PBS 1X pH 4.8; for Peptide Concentration-induced 50 % ANTS/DPX leakage at pH 7.4 (L/P), 3POPC/1POPG Vesicle / Peptide Concentration-induced 50 % ANTS/DPX leakage at pH 7.4 (L/P), POPC Vesicle: PBS 1X pH 7.4, high ratio = more potent; for change of ANTS/DPX dye leakage / liposome selectivity at pH 4.8: pH = 4.8 compared with physiological pH, anionic versus neutral liposomes
Protocol: Vesicle preparation: 5 mM ANTS and 12.5 mM DPX were entrapped in 0.1 µm diameter extruded vesicles (either POPC or POPC/POPG at a ratio of 3:1) with lipids. Gel filtration chromatography of Sephadex G‐100 was used to remove external free ANTS/DPX from LUVs with entrapped contents. LUVs were diluted to 0.5 mM and used to measure the leakage activity by the addition of aliquots of ACPs. Leakage was measured after 3 h incubation. 10% Triton was used as the positive control to measure the maximum leakage of the vesicle. Fluorescence emission spectra were recorded using excitation and emission wavelength of 350 and 510 nm for ANTS/DPX using a BioTek Synergy H1 Hybrid Multi‐Mode Reader.
Peptide Concentration-induced Peptide Concentration-induced
Name Sequence† 50 % ANTS/DPX leakage 50 % ANTS/DPX leakage at pH 7.4 (L/P) at pH 4.8 (L/P)
POPC Vesicle 3POPC/1POPG Vesicle POPC Vesicle 3POPC/1POPG Vesicle […]
Extended Data Table 4 | Peptide concentration-induced 50 % ANTS/DPX liposome leakage. 0.5 mM POPC and 3POPC/1POPG vesicles were fixed and incubated with titrated peptide concentration (0, 0.02, […]
hydrochloric acid-adjusted phoshate buffered saline (1X, pH 4.8). The values are shown as lipid per

HMLER‐shEcad = assay: cells; type: cell-based, human; details: 72 h
Description: (§1) […], and MCF-10A cells were maintained in MEGM with supplements and growth factors bovine pituitary extract, hydrocortisone, human epidermal growth factor, insulin, and gentamicin/amphotericin-B.

MCF‐10A = assay: cells; type: cell-based, human; details: for IC50: 72 h; for selectivity for cancerous cells over non‐tumorigenic MCF‐10A: 2D culture, ratio of IC50
Description: as §1

HMLER = assay: cells; type: cell-based, human; details: 72 h
Description: as §1

HEK293T = assay: cells; type: cell-based, human; details: 72 h

Compound | IC50 (U2OS) | Lipid Concentration-induced 50% Peptide Binding (L/P), 3POPC/1POPG Vesicle [1] | Lipid Concentration-induced 50% Peptide Binding (L/P), POPC Vesicle [1] | IC50 (HMLER‐shEcad) | IC50 (MCF‐10A) | IC50 (HMLER) | Peptide Concentration-induced 50 % ANTS/DPX leakage at pH 4.8 (L/P), 3POPC/1POPG Vesicle [2] | Peptide Concentration-induced 50 % ANTS/DPX leakage at pH 4.8 (L/P), POPC Vesicle [2] | Peptide Concentration-induced 50 % ANTS/DPX leakage at pH 7.4 (L/P), 3POPC/1POPG Vesicle [2] | Peptide Concentration-induced 50 % ANTS/DPX leakage at pH 7.4 (L/P), POPC Vesicle [2] | IC50 (HEK293T) | change of ANTS/DPX dye leakage / liposome selectivity at pH 4.8 [2] | selectivity for cancerous cells over non‐tumorigenic MCF‐10A (MCF‐10A)
CC(C)C[C@H](NC(=O)CN)C(=O)N[C@@H](CC(C)C)C(=O)N[C@@H](CC(=O)O)C(=O)N[C@@H](CC(C)C)C(=O)N[C@@H](CC(C)C)C(=O)N[C@@H](CCC(=O)O)C(=O)N[C@@H](CC(C)C)C(=O)N[C@@H](CC(C)C)C(=O)N[C@@H](CC(C)C)C(=O)N[C@@H](CCC(=O)O)C(=O)N[C@@H](C)C(=O)N[C@@H](C)C(=O)NCC(=O)N[C@@H](Cc1c[nH]c2ccccc12)C(N)=O [DEE] (H-GLLDLLELLLEAAGW-NH2) | 61 ± 1.41 µM | 0.38 L/P | 0.63 L/P | 6.05 ± 2.76 µM | 8.4 ± 1.56 µM | 5.55 ± 0.35 µM | 164 L/P | 110 L/P | 597 L/P | 644 L/P | 9.91 ± 0.44 µM | – | –
CC(C)C[C@H](NC(=O)CN)C(=O)N[C@@H](CC(C)C)C(=O)N[C@@H](CCC(=O)O)C(=O)N[C@@H](CC(C)C)C(=O)N[C@@H](CC(C)C)C(=O)N[C@@H](CCC(=O)O)C(=O)N[C@@H](CC(C)C)C(=O)N[C@@H](CC(C)C)C(=O)N[C@@H](CC(C)C)C(=O)N[C@@H](Cc1c[nH]cn1)C(=O)N[C@@H](C)C(=O)N[C@@H](C)C(=O)NCC(=O)N[C@@H](Cc1c[nH]c2ccccc12)C(N)=O [EEH] (H-GLLELLELLLHAAGW-NH2) | 19.6 ± 3.96 µM | 0.50 L/P | 0.50 L/P | 3.6 ± 0.85 µM | – | – | 168 L/P | 58 L/P | 755 L/P | 738 L/P | 12.9 ± 0.14 µM | significantly increased dye leakage from anionic liposomes | > 25 fold
CC(C)C[C@@H](NC(=O)CN)C(=O)N[C@H](CC(C)C)C(=O)N[C@H](CC(=O)O)C(=O)N[C@H](CC(C)C)C(=O)N[C@H](CC(C)C)C(=O)N[C@H](CCC(=O)O)C(=O)N[C@H](CC(C)C)C(=O)N[C@H](CC(C)C)C(=O)N[C@H](CC(C)C)C(=O)N[C@H](CCCCN)C(=O)N[C@H](C)C(=O)N[C@H](C)C(=O)NCC(=O)N[C@H](Cc1c[nH]c2ccccc12)C(N)=O [d-DEK] (H-G[dL][dL][dD][dL][dL][dE][dL][dL][dL][dK][dA][dA]G[dW]-NH2) | 5.84 ± 0.04 µM | – | – | 0.36 µM | 0.57 ± 0.01 µM | 0.44 ± 0.1 µM | – | – | – | – | 3.28 ± 0.21 µM | – | –

Further compounds by falling IC50 (U2OS), results first:

IC50 (U2OS) | Lipid Concentration-induced 50% Peptide Binding (L/P), 3POPC/1POPG Vesicle [1] | Lipid Concentration-induced 50% Peptide Binding (L/P), POPC Vesicle [1] | IC50 (HMLER‐shEcad) | IC50 (MCF‐10A) | IC50 (HMLER) | Compound | Peptide Concentration-induced 50 % ANTS/DPX leakage at pH 4.8 (L/P), 3POPC/1POPG Vesicle [2] | Peptide Concentration-induced 50 % ANTS/DPX leakage at pH 4.8 (L/P), POPC Vesicle [2] | Peptide Concentration-induced 50 % ANTS/DPX leakage at pH 7.4 (L/P), 3POPC/1POPG Vesicle [2] | Peptide Concentration-induced 50 % ANTS/DPX leakage at pH 7.4 (L/P), POPC Vesicle [2] | IC50 (HEK293T) | change of ANTS/DPX dye leakage / liposome selectivity at pH 4.8 [2] | selectivity for cancerous cells over non‐tumorigenic MCF‐10A (MCF‐10A)
78.8 ± 5.3 µM | 4.50 L/P | 1.33 L/P | 10.6 ± 3.46 µM | – | – | CC(C)C[C@H](NC(=O)CN)C(=O)N[C@@H](CC(C)C)C(=O)N[C@@H](CCC(=O)O)C(=O)N[C@@H](CC(C)C)C(=O)N[C@@H](CC(C)C)C(=O)N[C@@H](CCC(=O)O)C(=O)N[C@@H](CC(C)C)C(=O)N[C@@H](CC(C)C)C(=O)N[C@@H](CC(C)C)C(=O)N[C@@H](CCC(=O)O)C(=O)N[C@@H](C)C(=O)N[C@@H](C)C(=O)NCC(=O)N[C@@H](Cc1c[nH]c2ccccc12)C(N)=O [EEE] (H-GLLELLELLLEAAGW-NH2) | 28 L/P | 35 L/P | 346 L/P | 143 L/P | 50 µM | no increase in selectivity at low pH | > 25 fold
49.4 ± 13.3 µM | 0.20 L/P | 0.20 L/P | 2.05 ± 0.21 µM | – | – | CC(C)C[C@H](NC(=O)CN)C(=O)N[C@@H](CC(C)C)C(=O)N[C@@H](CCCCN)C(=O)N[C@@H](CC(C)C)C(=O)N[C@@H](CC(C)C)C(=O)N[C@@H](CCC(=O)O)C(=O)N[C@@H](CC(C)C)C(=O)N[C@@H](CC(C)C)C(=O)N[C@@H](CC(C)C)C(=O)N[C@@H](CCC(=O)O)C(=O)N[C@@H](C)C(=O)N[C@@H](C)C(=O)NCC(=O)N[C@@H](Cc1c[nH]c2ccccc12)C(N)=O [KEE] (H-GLLKLLELLLEAAGW-NH2) | 108 L/P | 97 L/P | 657 L/P | 626 L/P | 11.1 ± 1.84 µM | no increase in selectivity at low pH | > 25 fold
36.5 ± 3.92 µM | 1.50 L/P | 0.75 L/P | 3.6 ± 0.42 µM | 20.2 ± 6.72 µM | 5.35 ± 1.91 µM | CC(C)C[C@H](NC(=O)CN)C(=O)N[C@@H](CC(C)C)C(=O)N[C@@H](CC(=O)O)C(=O)N[C@@H](CC(C)C)C(=O)N[C@@H](CC(C)C)C(=O)N[C@@H](CCC(=O)O)C(=O)N[C@@H](CC(C)C)C(=O)N[C@@H](CC(C)C)C(=O)N[C@@H](CC(C)C)C(=O)N[C@@H](Cc1c[nH]cn1)C(=O)N[C@@H](C)C(=O)N[C@@H](C)C(=O)NCC(=O)N[C@@H](Cc1c[nH]c2ccccc12)C(N)=O [DEH] (H-GLLDLLELLLHAAGW-NH2) | 193 L/P | 63 L/P | 548 L/P | 620 L/P | 10.5 ± 4.67 µM | – | –
18.2 ± 1.06 µM | 0.44 L/P | 0.44 L/P | 2.55 ± 0.07 µM | – | – | CC(C)C[C@H](NC(=O)CN)C(=O)N[C@@H](CC(C)C)C(=O)N[C@@H](CCC(=O)O)C(=O)N[C@@H](CC(C)C)C(=O)N[C@@H](CC(C)C)C(=O)N[C@@H](Cc1c[nH]cn1)C(=O)N[C@@H](CC(C)C)C(=O)N[C@@H](CC(C)C)C(=O)N[C@@H](CC(C)C)C(=O)N[C@@H](CCC(=O)O)C(=O)N[C@@H](C)C(=O)N[C@@H](C)C(=O)NCC(=O)N[C@@H](Cc1c[nH]c2ccccc12)C(N)=O [EHE] (H-GLLELLHLLLEAAGW-NH2) | 384 L/P | 75 L/P | 706 L/P | 952 L/P | 13 µM | significantly increased dye leakage from anionic liposomes | > 25 fold
17.2 ± 1.06 µM | 0.72 L/P | 1.00 L/P | 2.8 ± 0.14 µM | 22.7 ± 4.31 µM | 3.75 ± 0.92 µM | CC(C)C[C@H](NC(=O)CN)C(=O)N[C@@H](CC(C)C)C(=O)N[C@@H](CC(=O)O)C(=O)N[C@@H](CC(C)C)C(=O)N[C@@H](CC(C)C)C(=O)N[C@@H](Cc1c[nH]cn1)C(=O)N[C@@H](CC(C)C)C(=O)N[C@@H](CC(C)C)C(=O)N[C@@H](CC(C)C)C(=O)N[C@@H](CCC(=O)O)C(=O)N[C@@H](C)C(=O)N[C@@H](C)C(=O)NCC(=O)N[C@@H](Cc1c[nH]c2ccccc12)C(N)=O [DHE] (H-GLLDLLHLLLEAAGW-NH2) | 469 L/P | 58 L/P | 581 L/P | 566 L/P | 11.1 ± 1.91 µM | – | –
